Test results from patent publication US12558428B2, “Heterobifunctional compounds and their use in treating disease” (Halda Therapeutics OpCo, Inc., priority 2024, dated 2026).
Read-outs that look alike come from different tables or passages of the source.

Legend:
Type in all cases: cell-based
[1] = system: MCF7 cells (ATCC #HTB-22); test: Cellular growth inhibition assay, MCF7 cells purchased from ATCC; conditions: Homo sapiens, MCF7, 144 h, Table 8-A; MCF7 cells purchased from ATCC; six days; CellTiter-Glo; read-out: GI50
How it was run: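 MCF7 cells in RPMI 1640 with 10% FBS and 0.2 U/ml insulin, seeded at 1,500 cells/well (ATCC) or 225 cells/well (ECACC). Compounds added 24 h later, then 6 days at 37° C. Viability by CellTiter-Glo 2.0 luminescence. GI50 from four-parameter fit.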

[2] = system: T-Rex 293 cells having increased expression of estrogen receptor alpha protein; test: Cellular growth inhibition assay, T-Rex 293 cells, (+) doxycycline; conditions: T-REx-293, 72 h, T-Rex 293 cells with doxycycline (increased ERα expression), 72 hours, CellTiter-Glo, read-out: (+) Dox GI50
How it was run: (§1)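 Viability read-out was CellTiter-Glo 2.0 luminescence after 72 h compound exposure, normalized to zero luminescence and fitted by four-parameter regression to give GI50. Cells were an ERα-inducible T-Rex 293 clone cultured with or without 3 ng/mL doxycycline in charcoal-stripped, phenol red-free medium.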

[3] = system: T-Rex 293 cells lacking increased expression of estrogen receptor alpha protein; test: Cellular growth inhibition assay, T-Rex 293 cells, (−) doxycycline; conditions: T-REx-293, 72 h, T-Rex 293 cells without doxycycline (lacking increased ERα expression), 72 hours, CellTiter-Glo, read-out: (−) Dox GI50
How it was run: as §1

SMILES	GI50 [1] [nM]	GI50 ([2]; Table 7-A) [nM]	GI50 ([3]; Table 7-A) [nM]	GI50 ([2]; Table 7-B) [nM]	GI50 ([3]; Table 7-B) [nM]
CC1=C(c2c(F)cc(F)cc2F)[C@@H](c2ccc(OCCN3CCC[C@@]4(CCN(c5ccc(C6=N[C@@H](C)c7nnc(C)n7-c7sc(C)c(C)c76)cc5)C4)C3)cc2)Oc2ccc(O)cc21 [V-10]	500 to 2500	500 to 2500	500 to 2500	–	–
CC1=C(c2c(F)cc(F)cc2F)C(c2ccc(N3CCN(CC4CCN(c5ccc(C6=N[C@@H](C)c7nnc(C)n7-c7sc(C)c(C)c76)cc5)CC4)CC3)cc2)Oc2ccc(O)cc21 (stereo partly drawn) [V-11]	50 to 500	50 to 500	500 to 2500	–	–
CC1=C(c2c(F)cc(F)cc2F)[C@H](c2ccc(C3CCN(CC4CCN(c5ccc(C6=N[C@@H](C)c7nnc(C)n7-c7sc(C)c(C)c76)cc5)CC4)CC3)cc2)Oc2ccc(O)cc21 [V-12]	50 to 500	< 50	50 to 500	–	–
CC1=C(c2c(F)cc(F)cc2F)[C@@H](c2ccc(C3CCN(CC4CCN(c5ccc(C6=N[C@@H](C)c7nnc(C)n7-c7sc(C)c(C)c76)cc5)CC4)CC3)cc2)Oc2ccc(O)cc21 [V-13]	50 to 500	50 to 500	50 to 500	–	–
CC1=C(c2c(F)cc(F)cc2F)[C@@H](c2ccc(N3CCN(C(=O)C4CCN(c5ccc(C6=N[C@@H](C)c7nnc(C)n7-c7sc(C)c(C)c76)cc5)CC4)CC3)cc2)Oc2ccc(O)cc21 [V-14]	50 to 500	50 to 500	500 to 2500	–	–
CC1=C(c2c(F)cc(F)cc2F)[C@H](c2ccc(N3CCN(C(=O)C4CCN(c5ccc(C6=N[C@@H](C)c7nnc(C)n7-c7sc(C)c(C)c76)cc5)CC4)CC3)cc2)Oc2ccc(O)cc21 [V-15]	50 to 500	< 50	50 to 500	–	–
CC1=C(c2c(F)cc(F)cc2F)C(c2ccc(OCCN3CCC4(CC3)CCN(c3ccc(C5=N[C@@H](C)c6nnc(C)n6-c6sc(C)c(C)c65)cc3)C4)cc2)Oc2ccc(O)cc21 (stereo partly drawn) [V-16]	50 to 500	500 to 2500	500 to 2500	–	–
CC1=C(c2c(F)cc(F)cc2F)C(c2ccc(N3CCC4(CCCN(CCOc5ccc(C6=N[C@@H](C)c7nnc(C)n7-c7sc(C)c(C)c76)cc5)C4)C3)cc2)Oc2ccc(O)cc21 (stereo partly drawn) [V-17]	50 to 500	50 to 500	50 to 500	–	–
CC1=C(c2c(F)cc(F)cc2F)C(c2ccc(N3CCC4(CCN(C(=O)Cc5ccc(C6=N[C@@H](C)c7nnc(C)n7-c7sc(C)c(C)c76)cc5)C4)CC3)cc2)Oc2ccc(O)cc21 (stereo partly drawn) [V-18]	50 to 500	50 to 500	50 to 500	–	–
CC1=C(c2c(F)cc(F)cc2F)[C@H](c2ccc(N3CCC(CN4CCC5(CC4)CN(c4ccc(C6=N[C@@H](C)c7nnc(C)n7-c7sc(C)c(C)c76)cc4)C5)CC3)cc2)Oc2ccc(O)cc21 [V-19]	< 50	< 50	500 to 2500	–	–
CC1=C(c2c(F)cc(F)cc2F)[C@@H](c2ccc(N3CCC(CN4CCC5(CC4)CN(c4ccc(C6=N[C@@H](C)c7nnc(C)n7-c7sc(C)c(C)c76)cc4)C5)CC3)cc2)Oc2ccc(O)cc21 [V-20]	50 to 500	< 50	500 to 2500	–	–
CC1=C(c2c(F)cc(F)cc2F)C(c2ccc(N3CCN(CC4CN(c5ccc(C6=N[C@@H](C)c7nnc(C)n7-c7sc(C)c(C)c76)cc5)C4)CC3)cc2)Oc2ccc(O)cc21 (stereo partly drawn) [V-21]	< 50	< 50	50 to 500	–	–
CC1=C(c2c(F)cc(F)cc2F)[C@@H](c2ccc(N3CCN(CC4CCN(c5ccc(C6=N[C@@H](C)c7nnc(C)n7-c7sc(C)c(C)c76)cc5)CC4)CC3)cc2)Oc2ccc(O)cc21 [V-22]	50 to 500	< 50	500 to 2500	–	–
CC1=C(c2c(F)cc(F)cc2F)[C@H](c2ccc(N3CCN(CC4CCN(c5ccc(C6=N[C@@H](C)c7nnc(C)n7-c7sc(C)c(C)c76)cc5)CC4)CC3)cc2)Oc2ccc(O)cc21 [V-23]	50 to 500	< 50	500 to 2500	–	–
CC1=C(c2c(F)cc(F)cc2F)[C@H](c2ccc(N3CCN(CC4CCN(c5ccc(C6=N[C@H](C)c7nnc(C)n7-c7sc(C)c(C)c76)cc5)CC4)CC3)cc2)Oc2ccc(O)cc21 [V-24]	> 2500	> 2500	> 2500	–	–
CC1=C(c2c(F)cc(F)cc2F)[C@@H](c2ccc(N3CCN(CC4CCN(c5ccc(C6=N[C@H](C)c7nnc(C)n7-c7sc(C)c(C)c76)cc5)CC4)CC3)cc2)Oc2ccc(O)cc21 [V-25]	> 2500	> 2500	> 2500	–	–

SMILES	GI50 [1] [nM]	GI50 ([2]; Table 7-A) [nM]	GI50 ([3]; Table 7-A) [nM]	GI50 ([2]; Table 7-B) [nM]	GI50 ([3]; Table 7-B) [nM]
CC1=C(c2c(F)cc(F)cc2F)[C@@H](c2ccc(OCC(=O)N3CCC4(CC3)CCN(c3ccc(C5=N[C@@H](C)c6nnc(C)n6-c6sc(C)c(C)c65)cc3)C4)cc2)Oc2ccc(O)cc21 [V-26]	50 to 500	< 50	50 to 500	–	–
CC1=C(c2c(F)cc(F)cc2F)[C@H](c2ccc(OCC(=O)N3CCC4(CC3)CCN(c3ccc(C5=N[C@@H](C)c6nnc(C)n6-c6sc(C)c(C)c65)cc3)C4)cc2)Oc2ccc(O)cc21 [V-27]	50 to 500	< 50	500 to 2500	–	–
CC1=C(c2c(F)cc(F)cc2F)C(c2ccc(N3CCN(CC4(O)CCN(c5ccc(C6=N[C@@H](C)c7nnc(C)n7-c7sc(C)c(C)c76)cc5)CC4)CC3)cc2)Oc2ccc(O)cc21 (stereo partly drawn) [V-28]	< 50	< 50	50 to 500	–	–
CC1=C(c2c(F)cc(F)cc2F)[C@@H](c2ccc(OCC(=O)N3CCCC4(CCN(c5ccc(C6=N[C@@H](C)c7nnc(C)n7-c7sc(C)c(C)c76)cc5)C4)C3)cc2)Oc2ccc(O)cc21 (stereo partly drawn) [V-29]	50 to 500	50 to 500	50 to 500	–	–
CC1=C(c2c(F)cc(F)cc2F)[C@H](c2ccc(OCC(=O)N3CCCC4(CCN(c5ccc(C6=N[C@@H](C)c7nnc(C)n7-c7sc(C)c(C)c76)cc5)C4)C3)cc2)Oc2ccc(O)cc21 (stereo partly drawn) [V-30]	50 to 500	50 to 500	50 to 500	–	–
CC1=C(c2c(F)cc(F)cc2F)[C@H](c2ccc(C3CCN(CC4(O)CCN(c5ccc(C6=N[C@@H](C)c7nnc(C)n7-c7sc(C)c(C)c76)cc5)CC4)CC3)cc2)Oc2ccc(O)cc21 [V-31]	50 to 500	< 50	50 to 500	–	–
CC1=C(c2c(F)cc(F)cc2F)[C@@H](c2ccc(C3CCN(CC4(O)CCN(c5ccc(C6=N[C@@H](C)c7nnc(C)n7-c7sc(C)c(C)c76)cc5)CC4)CC3)cc2)Oc2ccc(O)cc21 [V-32]	50 to 500	< 50	500 to 2500	–	–
CC1=C(c2c(F)cc(F)cc2F)[C@H](c2ccc(OCC(=O)N3CCCC4(CCN(c5ccc(C6=N[C@@H](Cc7ncco7)c7nnc(C)n7-c7sc(C)c(C)c76)cc5)C4)C3)cc2)Oc2ccc(O)cc21 (stereo partly drawn) [V-33]	50 to 500	< 50	50 to 500	–	–
CC1=C(c2c(F)cc(F)cc2F)[C@@H](c2ccc(OCC(=O)N3CCCC4(CCN(c5ccc(C6=N[C@@H](Cc7ncco7)c7nnc(C)n7-c7sc(C)c(C)c76)cc5)C4)C3)cc2)Oc2ccc(O)cc21 (stereo partly drawn) [V-34]	50 to 500	50 to 500	50 to 500	–	–
CC1=C(c2c(F)cc(F)cc2F)[C@H](c2ccc(N3CC(CN4CCN(CC5CN(c6ccc(C7=N[C@@H](C)c8nnc(C)n8-c8sc(C)c(C)c87)cc6)C5)CC4)C3)cc2)Oc2ccc(O)cc21 [V-35]	< 50	< 50	50 to 500	–	–
CC1=C(c2c(F)cc(F)cc2F)[C@@H](c2ccc(N3CC(CN4CCN(CC5CN(c6ccc(C7=N[C@@H](C)c8nnc(C)n8-c8sc(C)c(C)c87)cc6)C5)CC4)C3)cc2)Oc2ccc(O)cc21 [V-36]	50 to 500	< 50	500 to 2500	–	–
Cc1cc(N2CCC(O)(CN3CCN(c4cc(F)c([C@@H]5c6ccc(O)cc6CC[C@@H]5c5ccccc5)cc4F)CC3)CC2)ccc1Oc1ccc(C(C)(C)O)cc1-c1cn(C)c(=O)c2[nH]ccc12 [V-37]	< 50	–	–	< 50	500 to 2500
Cc1cc(N2CCC(O)(CN3CCN(c4cc(F)c([C@H]5c6ccc(O)cc6CC[C@H]5c5ccccc5)cc4F)CC3)CC2)ccc1Oc1ccc(C(C)(C)O)cc1-c1cn(C)c(=O)c2[nH]ccc12 [V-38]	50 to 500	–	–	50 to 500	50 to 500
Cc1cc(N2CCC(O)(CN3CCN(c4ccc([C@@H]5c6ccc(O)cc6CC[C@@H]5c5ccc(F)cc5F)cc4)CC3)CC2)ccc1Oc1ccc(C(C)(C)O)cc1-c1cn(C)c(=O)c2[nH]ccc12 [V-39]	50 to 500	–	–	50 to 500	50 to 500
Cc1cc(N2CCC(O)(CN3CCN(c4ccc([C@H]5c6ccc(O)cc6CC[C@H]5c5ccc(F)cc5F)cc4)CC3)CC2)ccc1Oc1ccc(C(C)(C)O)cc1-c1cn(C)c(=O)c2[nH]ccc12 [V-40]	< 50	–	–	< 50	500 to 2500
